What was measured:
Type in all cases: in vivo
transplanted rice = assay: Test Example 1: preemergence treatment under submerged conditions, effect on crop; settings: dose 2.52 g/a
Summary of the method: (§1)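 Scoring 0 (<5% mortality) to 5 (≥90%) was done three weeks after preemergence application to the water surface of submerged (4 cm) alluvial soil, doses given as g per are. Weeds were seeded and 2.5-leaf rice transplanted on the treatment day; greenhouse at 25–30 °C.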

velvetleaf [1] = assay: Test Example 4: herbicidal effect in foliage treatment; settings: dose 3.2 g/a, three weeks after the application
Summary of the method: (§2)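 14-day greenhouse-grown plants (25–30° C) sprayed on foliage with diluted EC; dose as g/a; effect graded after 3 weeks.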

posumbu knotweed [2] = assay: as above; settings: dose 3.2 g/a, three weeks after the application
Summary of the method: as §2

large crabgrass [3] = assay: as above; settings: dose 3.2 g/a, three weeks after the application
Summary of the method: as §2

water foxtail [4] = assay: as above; settings: dose 3.2 g/a, three weeks after the application
Summary of the method: as §2

common ragweed [5] = assay: as above; settings: dose 3.2 g/a, three weeks after the application
Summary of the method: as §2

wild oat [6] = assay: as above; settings: dose 3.2 g/a, three weeks after the application
Summary of the method: as §2

common chickweed [7] = assay: as above; settings: dose 3.2 g/a, three weeks after the application
Summary of the method: as §2

common lambsquater [8] = assay: as above; settings: dose 3.2 g/a, three weeks after the application
Summary of the method: as §2

giant foxtail [9] = assay: as above; settings: dose 3.2 g/a, three weeks after the application
Summary of the method: as §2

barnyardgrass [10] = assay: as above; settings: dose 3.2 g/a, three weeks after the application
Summary of the method: as §2

Italian ryegrass [11] = assay: as above; settings: dose 3.2 g/a, three weeks after the application
Summary of the method: as §2

redroot pigweed [12] = assay: as above; settings: dose 3.2 g/a, three weeks after the application
Summary of the method: as §2

beadstraw [13] = assay: as above; settings: dose 3.2 g/a, three weeks after the application
Summary of the method: as §2

bulrush [14] = assay: Test Example 2: herbicidal effects during the vegetation period under submerged conditions; settings: treatment during the vegetation period under submerged conditions; dose 2.52 g/a
Summary of the method: (§3)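 Barnyardgrass, bulrush and ducksalad were co-sown in alluvial soil flooded to 4 cm and grown in a greenhouse at 25 to 30° C. At the 1- or 2-leaf stage, water-diluted emulsifiable concentrates went onto the water surface at set doses (g/a). Herbicidal effect was scored three weeks later on a graded scale.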

ducksalad [15] = assay: as above; settings: treatment during the vegetation period under submerged conditions; dose 2.52 g/a
Summary of the method: as §3

barnyardgrass [16] = assay: as above; settings: treatment during the vegetation period under submerged conditions; dose 2.52 g/a
Summary of the method: as §3

velvetleaf [17] = assay: Test Example 3: herbicidal effects in soil treatment; settings: dose 3.2 g/a
Summary of the method: (§4)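 Seeds were sown in sterilized diluvial soil and covered with about 1.5 cm of soil. Compounds, formulated as emulsifiable concentrates and diluted with water, were sprayed evenly over the soil surface at set doses in g/a. Herbicidal effect was scored on a rating scale three weeks later.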

posumbu knotweed [18] = assay: as above; settings: dose 3.2 g/a
Summary of the method: as §4

large crabgrass [19] = assay: as above; settings: dose 3.2 g/a
Summary of the method: as §4

water foxtail [20] = assay: as above; settings: dose 3.2 g/a
Summary of the method: as §4

common ragweed [21] = assay: as above; settings: dose 3.2 g/a
Summary of the method: as §4

wild oat [22] = assay: as above; settings: dose 3.2 g/a
Summary of the method: as §4

common chickweed [23] = assay: as above; settings: dose 3.2 g/a
Summary of the method: as §4

common lambsquater [24] = assay: as above; settings: dose 3.2 g/a
Summary of the method: as §4

giant foxtail [25] = assay: as above; settings: dose 3.2 g/a
Summary of the method: as §4

barnyardgrass [26] = assay: as above; settings: dose 3.2 g/a
Summary of the method: as §4

Italian ryegrass [27] = assay: as above; settings: dose 3.2 g/a
Summary of the method: as §4

redroot pigweed [28] = assay: as above; settings: dose 3.2 g/a
Summary of the method: as §4

beadstraw [29] = assay: as above; settings: dose 3.2 g/a
Summary of the method: as §4

bulrush [30] = assay: Test Example 1: herbicidal effects in preemergence treatment under submerged conditions; settings: dose 2.52 g/a
Summary of the method: as §1

ducksalad [31] = assay: as above; settings: dose 2.52 g/a
Summary of the method: as §1

barnyardgrass [32] = assay: as above; settings: dose 2.52 g/a
Summary of the method: as §1

SMILES | a: transplanted rice, effect on crop (evaluation scale 0-5) (transplanted rice) | I: velvetleaf, herbicidal effect (velvetleaf [1]) | M: posumbu knotweed, herbicidal effect (posumbu knotweed [2]) | D: large crabgrass, herbicidal effect (large crabgrass [3]) | G: water foxtail, herbicidal effect (water foxtail [4]) | J: common ragweed, herbicidal effect (common ragweed [5]) | F: wild oat, herbicidal effect (wild oat [6]) | N: common chickweed, herbicidal effect (common chickweed [7]) | L: common lambsquater, herbicidal effect (common lambsquater [8]) | E: giant foxtail, herbicidal effect (giant foxtail [9]) | A: barnyardgrass, herbicidal effect (barnyardgrass [10]) | H: Italian ryegrass, herbicidal effect (Italian ryegrass [11]) | K: redroot pigweed, herbicidal effect (redroot pigweed [12]) | O: beadstraw, herbicidal effect (beadstraw [13]) | B: bulrush, herbicidal effect (evaluation scale 0-5) (bulrush [14]) | C: ducksalad, herbicidal effect (evaluation scale 0-5) (ducksalad [15]) | A: barnyardgrass, herbicidal effect (evaluation scale 0-5) (barnyardgrass [16]) | herbicidal effect, I: velvetleaf (velvetleaf [17]) | herbicidal effect, M: posumbu knotweed (posumbu knotweed [18]) | herbicidal effect, D: large crabgrass (large crabgrass [19]) | further results
CN1COCN(Cc2ccccc2NS(=O)(=O)C(F)(F)F)C1=O [IV-1] | 0 (mortality of less than 5% (almost ineffective)) | 5 (mortality of 90% or above (nearly complete death)) | 0 (mortality of less than 5% (almost ineffective)) | 4 (mortality of at least 70% and less than 90%) | 5 (mortality of 90% or above (nearly complete death)) | 1 (mortality of at least 5% and less than 20%) | 0 (mortality of less than 5% (almost ineffective)) | 1 (mortality of at least 5% and less than 20%) | 0 (mortality of less than 5% (almost ineffective)) | 3 (mortality of at least 40% and less than 70%) | 4 (mortality of at least 70% and less than 90%) | 3 (mortality of at least 40% and less than 70%) | 0 (mortality of less than 5% (almost ineffective)) | 3 (mortality of at least 40% and less than 70%) | 5 (mortality of 90% or above (nearly complete death)) | 4 (mortality of at least 70% and less than 90%) | 4 (mortality of at least 70% and less than 90%) | 3 (mortality of at least 40% and less than 70%) | 0 (mortality of less than 5% (almost ineffective)) | 4 (mortality of at least 70% and less than 90%) | herbicidal effect, G: water foxtail (water foxtail [20]): 5 (mortality of 90% or above (nearly complete death)); herbicidal effect, J: common ragweed (common ragweed [21]): 2 (mortality of at least 20% and less than 40%); herbicidal effect, F: wild oat (wild oat [22]): 0 (mortality of less than 5% (almost ineffective)); herbicidal effect, N: common chickweed (common chickweed [23]): 0 (mortality of less than 5% (almost ineffective)); herbicidal effect, L: common lambsquater (common lambsquater [24]): 0 (mortality of less than 5% (almost ineffective)); herbicidal effect, E: giant foxtail (giant foxtail [25]): 3 (mortality of at least 40% and less than 70%); herbicidal effect, A: barnyardgrass (barnyardgrass [26]): 5 (mortality of 90% or above (nearly complete death)); herbicidal effect, H: Italian ryegrass (Italian ryegrass [27]): 0 (mortality of less than 5% (almost ineffective)); herbicidal effect, K: redroot pigweed (redroot pigweed [28]): 0 (mortality of less than 5% (almost ineffective)); herbicidal effect, O: beadstraw (beadstraw [29]): 0 (mortality of less than 5% (almost ineffective)); B: bulrush, herbicidal effect (evaluation scale 0-5) (bulrush [30]): 5 (mortality of 90% or above (nearly complete death)); C: ducksalad, herbicidal effect (evaluation scale 0-5) (ducksalad [31]): 4 (mortality of at least 70% and less than 90%); A: barnyardgrass, herbicidal effect (evaluation scale 0-5) (barnyardgrass [32]): 5 (mortality of 90% or above (nearly complete death))
CCOC(=O)N(c1ccccc1CN1COCN(C)C1=O)S(=O)(=O)C(F)(F)F [IV-2] | 0 (mortality of less than 5% (almost ineffective)) | 3 (mortality of at least 40% and less than 70%) | 0 (mortality of less than 5% (almost ineffective)) | 5 (mortality of 90% or above (nearly complete death)) | 5 (mortality of 90% or above (nearly complete death)) | 1 (mortality of at least 5% and less than 20%) | 0 (mortality of less than 5% (almost ineffective)) | 0 (mortality of less than 5% (almost ineffective)) | 0 (mortality of less than 5% (almost ineffective)) | 3 (mortality of at least 40% and less than 70%) | 4 (mortality of at least 70% and less than 90%) | 0 (mortality of less than 5% (almost ineffective)) | 0 (mortality of less than 5% (almost ineffective)) | 0 (mortality of less than 5% (almost ineffective)) | 5 (mortality of 90% or above (nearly complete death)) | 4 (mortality of at least 70% and less than 90%) | 5 (mortality of 90% or above (nearly complete death)) | 2 (mortality of at least 20% and less than 40%) | 0 (mortality of less than 5% (almost ineffective)) | 5 (mortality of 90% or above (nearly complete death)) | herbicidal effect, G: water foxtail (water foxtail [20]): 5 (mortality of 90% or above (nearly complete death)); herbicidal effect, J: common ragweed (common ragweed [21]): 0 (mortality of less than 5% (almost ineffective)); herbicidal effect, F: wild oat (wild oat [22]): 0 (mortality of less than 5% (almost ineffective)); herbicidal effect, N: common chickweed (common chickweed [23]): 0 (mortality of less than 5% (almost ineffective)); herbicidal effect, L: common lambsquater (common lambsquater [24]): 0 (mortality of less than 5% (almost ineffective)); herbicidal effect, E: giant foxtail (giant foxtail [25]): 4 (mortality of at least 70% and less than 90%); herbicidal effect, A: barnyardgrass (barnyardgrass [26]): 5 (mortality of 90% or above (nearly complete death)); herbicidal effect, H: Italian ryegrass (Italian ryegrass [27]): 2 (mortality of at least 20% and less than 40%); herbicidal effect, K: redroot pigweed (redroot pigweed [28]): 0 (mortality of less than 5% (almost ineffective)); herbicidal effect, O: beadstraw (beadstraw [29]): 0 (mortality of less than 5% (almost ineffective)); B: bulrush, herbicidal effect (evaluation scale 0-5) (bulrush [30]): 5 (mortality of 90% or above (nearly complete death)); C: ducksalad, herbicidal effect (evaluation scale 0-5) (ducksalad [31]): 3 (mortality of at least 40% and less than 70%); A: barnyardgrass, herbicidal effect (evaluation scale 0-5) (barnyardgrass [32]): 5 (mortality of 90% or above (nearly complete death))

From US20120029187A1, “HALOALKYLSULFONANILIDE DERIVATIVE” (Nissan Chemical Industries, Ltd., priority 2009, published 2012)
